Source: patent US20070219209A1, “Piperazine Derivatives Of Alkyl Oxindoles” (GYÓGYSZERGYÁR RT., priority 2004, published 2007)
Counter-ions that a name gives are not always drawn.

Columns and labels:
5-HT7 receptor = target: T1, 5-HT7 receptor (Homo sapiens, UniProt P34969); experiment: 5-HT7 receptor binding experiment; conditions: human cloned receptors; ligand 3H-LSD 1.0 nM; non-specific clozapine 25 μM
T1 construct: expressed in transfected cells
Description: For the determination of 5-HT7 receptor binding human cloned receptors were used. The α1 receptor binding was determined from isolated frontal cortex preparation of male Wistar rats weighing 120-200 g. The 5-HT uptake measurements were performed on samples from isolated cortex of male rats. The protein contents of membrane preparations were determined by the method of Lowry (1951).
In the course of 5-HT7 and α1 receptor binding studies the ligands were ^3H-lizergic acid diethyl amide (LSD) (1.0 nM) and ^3H-prazosine (0.3 nM). Clozapine (25 μM) and prazosine (1 μM) were used for the measurement of non-specific bindings. The α1 binding studies were performed according to the methods of Reader and Greengrass (Reader, T. A., Briere, R., Grondin, L.: J. Neural Transm. 68, p. 79 (1987); Greengrass, P., Brenner, R.: Eur. J. Pharmacol. 55, p. 323 (1979)). In the serotonin uptake inhibition studies the ligand was tritiated serotonin, the non-specific ligand was fluoxetine (100 μM). On the test results Ki values were calculated.

T1 sequence (P34969 whole entry): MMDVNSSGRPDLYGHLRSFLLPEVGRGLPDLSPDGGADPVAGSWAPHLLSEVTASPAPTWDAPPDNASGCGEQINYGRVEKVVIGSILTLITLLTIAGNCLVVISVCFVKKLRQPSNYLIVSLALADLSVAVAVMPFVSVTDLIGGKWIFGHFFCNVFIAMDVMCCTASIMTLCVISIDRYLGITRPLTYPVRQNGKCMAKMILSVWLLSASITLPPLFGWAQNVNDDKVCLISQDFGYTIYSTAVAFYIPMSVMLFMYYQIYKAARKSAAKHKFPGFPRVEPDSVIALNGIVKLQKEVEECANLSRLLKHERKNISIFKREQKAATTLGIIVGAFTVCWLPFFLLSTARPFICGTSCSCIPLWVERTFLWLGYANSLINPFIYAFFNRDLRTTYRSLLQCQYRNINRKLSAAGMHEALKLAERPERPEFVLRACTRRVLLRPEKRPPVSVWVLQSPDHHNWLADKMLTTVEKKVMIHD

SMILES	melting point	Ki (5-HT7 receptor)
O=C1Nc2ccc(F)cc2C1CCCCN1CCN(c2ccccc2)CC1 (stereo not drawn)	140 to 144 °C	–
O=C1Nc2ccc(F)cc2C1CCCCN1CCN(c2cccc(Cl)c2)CC1 (stereo not drawn) (as salt: hydrochloride) [Example 6, 3-{4-[4-(3-Chlorophenyl)-piperazin-1-yl]-butyl}-5-fluoro-1,3-dihydro-2H-indol-2-one monohydrochloride]	180 to 184 °C	–
O=C1Nc2ccc(F)cc2C1CCCCN1CCN(c2ccc(Cl)cc2)CC1 (stereo not drawn) (as salt: hydrochloride) [Example 7, 3-{4-[4-(4-Chlorophenyl)-piperazin-1-yl]-butyl}-5-fluoro-1,3-dihydro-2H-indol-2-one monohydrochloride]	193 to 196 °C	–
O=C1Nc2cc(F)ccc2C1CCCCN1CCN(c2ccc(Cl)cc2)CC1 (stereo not drawn) (as salt: hydrochloride) [Example 8, 3-{4-[4-(4-Chlorophenyl)-piperazin-1-yl]-butyl}-6-fluoro-1,3-dihydro-2H-indol-2-one monohydrochloride]	149 to 151 °C	–
O=C1Nc2ccccc2C1CCCCN1CCN(c2ccc(Cl)c(C(F)(F)F)c2)CC1 (stereo not drawn) (as salt: hydrochloride) [Example 15, 3-{4-[4-(4-Chloro-3-trifluoromethylphenyl)-piperazin-1-yl]-butyl}-1,3-dihydro-2H-indol-2-one monohydrochloride]	123 to 125 °C	–
O=C1Nc2ccc(F)cc2C1CCCCN1CCN(c2cccc(Cl)c2)CC1 (stereo not drawn) [Example 6, 3-{4-[4-(3-Chlorophenyl)-piperazin-1-yl]-butyl}-5-fluoro-1,3-dihydro-2H-indol-2-one monohydrochloride]	–	< 100 µM
O=C1Nc2ccc(F)cc2C1CCCCN1CCN(c2ccc(Cl)cc2)CC1 (stereo not drawn) [Example 7, 3-{4-[4-(4-Chlorophenyl)-piperazin-1-yl]-butyl}-5-fluoro-1,3-dihydro-2H-indol-2-one monohydrochloride]	–	< 100 µM
O=C1Nc2cc(F)ccc2C1CCCCN1CCN(c2ccc(Cl)cc2)CC1 (stereo not drawn) [Example 8, 3-{4-[4-(4-Chlorophenyl)-piperazin-1-yl]-butyl}-6-fluoro-1,3-dihydro-2H-indol-2-one monohydrochloride]	–	< 100 µM
Cc1ccc2c(c1)C(CCCCN1CCN(c3cccc(Cl)c3)CC1)C(=O)N2 (stereo not drawn) [Example 9, 3-{4-[4-(3-Chlorophenyl)-piperazin-1-yl]-butyl}-5-methyl-1,3-dihydro-2H-indol-2-one]	122 to 124 °C	< 100 µM
Cc1ccc2c(c1)C(CCCCN1CCN(c3ccc(Cl)cc3)CC1)C(=O)N2 (stereo not drawn) [Example 10, 3-{4-[4-(4-Chlorophenyl)-piperazin-1-yl]-butyl}-5-methyl-1,3-dihydro-2H-indol-2-one]	159 to 161 °C	< 100 µM
O=C1Nc2ccccc2C1CCCCN1CCN(c2ccc(F)cc2)CC1 (stereo not drawn) [Example 11, 3-{4-[4-(4-Fluorophenyl)-piperazin-1-yl]-butyl}-1,3-dihydro-2H-indol-2-one]	113 to 115 °C	< 100 µM
O=C1Nc2ccc(F)cc2C1CCCCN1CCN(c2ccc(F)cc2)CC1 (stereo not drawn) [Example 16, 5-Fluoro-3-{4-[4-(4-fluorophenyl)-piperazin-1-yl]-butyl}-1,3-dihydro-2H-indol-2-one]	135 to 137 °C	< 100 µM
O=C1Nc2ccc(F)cc2C1CCCCN1CCN(c2ccc(Cl)c(Cl)c2)CC1 (stereo not drawn) [Example 23, 3-{4-[4-(3,4-dichlorophenyl)-piperazine-1-yl]-butyl}-5-fluoro-1,3-dihydro-2H-indol-2-one]	118 to 120 °C	–
O=C1Nc2ccccc2C1CCCCN1CCN(c2ccccc2)CC1 (stereo not drawn) [Example 24, 3-[4-(4-phenyl-piperazin-1-yl)-butyl]-1,3-dihydro-2H-indol-2-one]	110 to 113 °C	–

Further lines, results first:

melting point	Ki (5-HT7 receptor)	SMILES
180 to 183 °C	–	O=C1Nc2ccccc2C1CCCCN1CCN(c2ccc(F)c(Cl)c2)CC1 (stereo not drawn) (as salt: hydrochloride) [Example 14, 3-{4-[4-(3-Chloro-4-fluorophenyl)-piperazin-1-yl]-butyl}-1,3-dihydro-2H-indol-2-one monohydrochloride]
112 to 114 °C	< 100 µM	O=C1Nc2ccccc2C1CCCCN1CCN(c2ccc(Cl)c(Cl)c2)CC1 (stereo not drawn) [Example 12, 3-{4-[4-(3,4-Dichlorophenyl)-piperazin-1-yl]-butyl}-1,3-dihydro-2H-indol-2-one]
–	< 100 µM	O=C1Nc2ccccc2C1CCCCN1CCN(c2ccc(F)c(Cl)c2)CC1 (stereo not drawn) [Example 14, 3-{4-[4-(3-Chloro-4-fluorophenyl)-piperazin-1-yl]-butyl}-1,3-dihydro-2H-indol-2-one monohydrochloride]
–	< 100 µM	O=C1Nc2ccccc2C1CCCCN1CCN(c2ccc(Cl)c(C(F)(F)F)c2)CC1 (stereo not drawn) [Example 15, 3-{4-[4-(4-Chloro-3-trifluoromethylphenyl)-piperazin-1-yl]-butyl}-1,3-dihydro-2H-indol-2-one monohydrochloride]
136 to 137 °C	< 100 µM	O=C1Nc2ccccc2C1CCCCN1CCN(c2ccc(Cl)cc2)CC1 (stereo not drawn) [Example 17, 3-{4-[4-(4-Chlorophenyl)-piperazin-1-yl]-butyl}-1,3-dihydro-2H-indol-2-one]
112 to 114 °C	< 100 µM	O=C1Nc2ccccc2C1CCCCN1CCN(c2cccc(Cl)c2)CC1 (stereo not drawn) [Example 18, 3-{4-[4-(3-Chlorophenyl)-piperazin-1-yl]-butyl}-1,3-dihydro-2H-indol-2-one]
